Reference: publication PMC6754293 (Cell chemical biology, 2019)

Columns and labels:
NSCLC cell lines = assay: viability-based drug screen and dose response; conditions: 72 hours treatment; screen at 0.5 μM and 2.5 μM, confirmed in 14 NSCLC cell lines
A427 cells = assay: crystal violet clonogenic assay; assay type: cell-based; conditions: 10 days
H1155 and A427 cells [1] = assay type: cell-based; conditions: 0.5 μM and 1 μM, 24 hours (blot), 24 and 48 hours (imaging)
MEK1 = MEK1 (Homo sapiens, UniProt Q02750); assay: in vitro kinase assay MEK1; assay type: biochemical; conditions: 10 μM ATP; compared with cabozantinib
Sequence of MEK1 (Q02750 whole entry): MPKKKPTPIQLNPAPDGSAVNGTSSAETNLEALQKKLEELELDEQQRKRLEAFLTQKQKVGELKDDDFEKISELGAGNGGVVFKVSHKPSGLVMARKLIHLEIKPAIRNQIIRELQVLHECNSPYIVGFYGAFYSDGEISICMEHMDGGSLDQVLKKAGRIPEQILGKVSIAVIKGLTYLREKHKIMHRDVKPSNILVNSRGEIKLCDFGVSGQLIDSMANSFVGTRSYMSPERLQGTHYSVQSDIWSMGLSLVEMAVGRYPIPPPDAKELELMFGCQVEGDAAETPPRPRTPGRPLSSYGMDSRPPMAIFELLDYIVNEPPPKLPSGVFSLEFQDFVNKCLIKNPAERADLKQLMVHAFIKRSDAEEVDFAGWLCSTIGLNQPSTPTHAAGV

SRC = SRC (Homo sapiens, UniProt P12931); assay: in vitro kinase assay SRC; assay type: biochemical; conditions: 10 μM ATP; compared with cabozantinib
Sequence of SRC (P12931 whole entry): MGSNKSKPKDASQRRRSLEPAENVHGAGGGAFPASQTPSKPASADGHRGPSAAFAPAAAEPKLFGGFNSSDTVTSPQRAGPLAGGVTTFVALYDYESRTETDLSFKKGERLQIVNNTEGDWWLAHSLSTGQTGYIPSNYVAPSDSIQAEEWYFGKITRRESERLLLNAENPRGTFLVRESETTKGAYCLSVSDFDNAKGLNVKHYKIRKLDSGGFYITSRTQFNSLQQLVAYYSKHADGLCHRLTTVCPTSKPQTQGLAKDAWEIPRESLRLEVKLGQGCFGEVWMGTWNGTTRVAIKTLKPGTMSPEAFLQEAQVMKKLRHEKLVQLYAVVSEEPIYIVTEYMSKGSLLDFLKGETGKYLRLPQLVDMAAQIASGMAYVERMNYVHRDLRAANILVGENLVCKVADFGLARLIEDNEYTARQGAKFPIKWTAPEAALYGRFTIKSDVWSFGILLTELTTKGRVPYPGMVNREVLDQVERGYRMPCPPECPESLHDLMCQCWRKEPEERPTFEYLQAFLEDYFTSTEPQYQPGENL

FER = FER (Homo sapiens, UniProt P16591); assay: in vitro kinase assay FER; assay type: biochemical; conditions: 10 μM ATP; compared with cabozantinib
Sequence of FER (P16591 whole entry): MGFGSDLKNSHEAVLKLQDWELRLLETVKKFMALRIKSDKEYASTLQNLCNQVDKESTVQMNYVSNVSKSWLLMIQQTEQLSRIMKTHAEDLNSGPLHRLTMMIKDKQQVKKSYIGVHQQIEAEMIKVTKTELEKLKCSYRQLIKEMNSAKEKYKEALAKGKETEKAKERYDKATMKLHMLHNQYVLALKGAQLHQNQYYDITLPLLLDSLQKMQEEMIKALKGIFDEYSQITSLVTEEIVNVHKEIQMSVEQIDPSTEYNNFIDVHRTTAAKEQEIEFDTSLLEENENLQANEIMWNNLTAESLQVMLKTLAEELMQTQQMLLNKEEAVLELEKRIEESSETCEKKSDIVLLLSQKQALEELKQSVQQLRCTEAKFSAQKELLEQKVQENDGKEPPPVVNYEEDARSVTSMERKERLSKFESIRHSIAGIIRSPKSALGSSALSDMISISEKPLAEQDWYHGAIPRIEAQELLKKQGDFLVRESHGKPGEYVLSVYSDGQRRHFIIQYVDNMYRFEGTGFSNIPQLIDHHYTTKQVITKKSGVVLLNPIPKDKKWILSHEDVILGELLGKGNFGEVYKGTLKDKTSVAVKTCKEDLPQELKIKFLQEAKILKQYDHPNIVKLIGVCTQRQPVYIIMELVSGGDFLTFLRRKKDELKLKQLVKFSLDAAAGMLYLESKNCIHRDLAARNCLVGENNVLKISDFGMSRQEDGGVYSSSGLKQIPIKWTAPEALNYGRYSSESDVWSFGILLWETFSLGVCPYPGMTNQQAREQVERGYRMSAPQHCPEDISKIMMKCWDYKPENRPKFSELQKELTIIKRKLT

AURKA = target: T1, AURKA (Homo sapiens, UniProt O14965); assay: in vitro kinase assay AURKA; assay type: biochemical; conditions: 10 μM ATP; compared with cabozantinib
T1 sequence (O14965 1-403): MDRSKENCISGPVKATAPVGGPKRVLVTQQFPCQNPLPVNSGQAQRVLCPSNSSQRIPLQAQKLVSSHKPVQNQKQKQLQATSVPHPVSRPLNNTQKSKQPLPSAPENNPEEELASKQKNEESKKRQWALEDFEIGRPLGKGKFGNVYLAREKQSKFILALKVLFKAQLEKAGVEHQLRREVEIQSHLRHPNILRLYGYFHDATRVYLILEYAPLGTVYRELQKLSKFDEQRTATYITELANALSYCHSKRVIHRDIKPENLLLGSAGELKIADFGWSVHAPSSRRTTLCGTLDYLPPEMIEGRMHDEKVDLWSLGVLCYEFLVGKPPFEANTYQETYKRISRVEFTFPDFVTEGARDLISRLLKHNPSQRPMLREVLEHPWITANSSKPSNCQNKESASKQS

AURKB = AURKB (Homo sapiens, UniProt Q96GD4); assay: in vitro kinase assay AURKB; assay type: biochemical; conditions: 10 μM ATP; compared with cabozantinib
Sequence of AURKB (Q96GD4 whole entry): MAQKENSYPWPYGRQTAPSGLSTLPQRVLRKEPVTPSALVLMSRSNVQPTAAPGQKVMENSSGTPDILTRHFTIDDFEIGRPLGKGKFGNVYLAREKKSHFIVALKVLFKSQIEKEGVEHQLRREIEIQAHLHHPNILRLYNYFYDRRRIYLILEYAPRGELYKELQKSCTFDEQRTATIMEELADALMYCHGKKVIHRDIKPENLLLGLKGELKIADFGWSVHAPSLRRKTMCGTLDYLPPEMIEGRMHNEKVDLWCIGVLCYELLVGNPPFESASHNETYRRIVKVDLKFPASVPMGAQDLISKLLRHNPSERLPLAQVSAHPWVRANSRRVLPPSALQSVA

[2] = test system: SRC autophosphorylation at Y419 in H1155 cells; assay: SRC autophosphorylation at Y419; assay type: cell-based; conditions: data not shown
[3] = test system: pERK at T202/Y204 (substrate sites of MEK1/2); assay: Western blot of pERK; assay type: cell-based; conditions: H1155 and A427 cells; 1 hour; 0.1, 0.5 and 1 μM
[4] = test system: histone H3 at S10 (downstream target of AURKB); assay: Western blot of pH3; assay type: cell-based; conditions: H1155 cells, 6 hours, 0.05, 0.25 and 0.5 μM
H1155 and A427 cells [5] = assay: cell cycle analysis; assay type: cell-based; conditions: 6 hours
[6] = test system: tyrosine phosphorylated FER in H1155 cells; assay: pY immunoprecipitation of FER; assay type: cell-based; conditions: 3 hours, 1 μM
FAK autophosphorylation = FAK autophosphorylation immunoblot; assay type: cell-based; conditions: at the concentrations used
SCLC cell lines = assay: viability of SCLC cell lines; assay type: cell-based; conditions: 72 hours treatment
H1155 cells = assay: H1155 cell viability with tool compounds alone or combined; assay type: cell-based; conditions: compared to AURKB inhibition
MEK2 = conditions: read-out: IC50 MEK2; second value of MEK1/2 pair; ref Yamaguchi et al., 2011; cited from earlier work
MET = MET (Homo sapiens, UniProt P08581); assay: pulldowns with H1648 lysate and in vitro MET kinase assays of probes; assay type: biochemical
Sequence of MET (P08581 25-1390): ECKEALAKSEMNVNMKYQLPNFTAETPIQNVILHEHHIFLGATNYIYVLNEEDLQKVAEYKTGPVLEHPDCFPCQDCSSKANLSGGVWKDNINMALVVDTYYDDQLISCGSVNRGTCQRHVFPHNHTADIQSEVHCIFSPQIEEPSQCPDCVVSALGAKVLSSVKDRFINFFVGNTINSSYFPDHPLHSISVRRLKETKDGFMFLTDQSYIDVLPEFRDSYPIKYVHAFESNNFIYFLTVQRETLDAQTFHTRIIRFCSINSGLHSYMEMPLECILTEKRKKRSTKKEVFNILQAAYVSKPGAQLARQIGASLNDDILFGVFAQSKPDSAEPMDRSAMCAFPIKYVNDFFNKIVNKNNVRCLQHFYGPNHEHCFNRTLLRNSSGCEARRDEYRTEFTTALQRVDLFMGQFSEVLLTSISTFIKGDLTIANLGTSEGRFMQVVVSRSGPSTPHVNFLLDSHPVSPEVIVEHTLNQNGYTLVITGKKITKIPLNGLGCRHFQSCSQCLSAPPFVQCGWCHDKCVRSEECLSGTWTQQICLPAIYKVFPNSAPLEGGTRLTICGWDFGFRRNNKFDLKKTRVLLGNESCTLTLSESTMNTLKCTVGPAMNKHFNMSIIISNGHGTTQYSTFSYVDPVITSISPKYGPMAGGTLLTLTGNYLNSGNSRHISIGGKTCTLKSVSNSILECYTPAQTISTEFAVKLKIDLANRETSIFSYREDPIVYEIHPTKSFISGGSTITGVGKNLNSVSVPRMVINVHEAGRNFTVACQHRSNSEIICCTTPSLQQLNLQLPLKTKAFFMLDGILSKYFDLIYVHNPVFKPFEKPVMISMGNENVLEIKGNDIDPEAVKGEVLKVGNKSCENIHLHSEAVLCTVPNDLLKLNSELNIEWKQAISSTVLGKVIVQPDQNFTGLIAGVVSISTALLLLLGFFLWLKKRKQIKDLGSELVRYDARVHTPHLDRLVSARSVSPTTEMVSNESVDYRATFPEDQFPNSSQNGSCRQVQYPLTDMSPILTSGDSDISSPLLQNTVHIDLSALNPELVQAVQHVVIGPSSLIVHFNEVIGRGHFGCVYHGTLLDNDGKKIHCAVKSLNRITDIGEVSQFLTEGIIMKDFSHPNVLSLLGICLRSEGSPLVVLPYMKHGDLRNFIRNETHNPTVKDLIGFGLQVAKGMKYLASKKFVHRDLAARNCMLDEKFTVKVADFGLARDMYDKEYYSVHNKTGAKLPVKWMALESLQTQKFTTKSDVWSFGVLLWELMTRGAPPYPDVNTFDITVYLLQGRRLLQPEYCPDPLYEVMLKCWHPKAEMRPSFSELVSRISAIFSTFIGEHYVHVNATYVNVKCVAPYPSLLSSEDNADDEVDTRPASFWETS

[7] = test system: MET autophosphorylation in H1648 cells

For `COc1cc2c(Oc3ccc(NC(=O)C4(C(=O)Nc5ccc(F)cc5)CC4)cc3F)ccnc2cc1OCCCN1CCOCC1` [foretinib], the “effect on viability of NSCLC cell lines” value (NSCLC cell lines) was “much higher cellular activity compared to cabozantinib”, the “inhibition of A427 cell growth, clonogenic assay” value (A427 cells) was “inhibited A427 cell growth” and the “induction of apoptosis (PARP1 and caspase 3 cleavage, caspase 3/7)” value (H1155 and A427 cells [1]) was “induced apoptosis”. The “MEK1 inhibition, in vitro kinase assay” value (MEK1) was “more potently inhibited by foretinib than by cabozantinib”, the “SRC inhibition, in vitro kinase assay” value (SRC) was “more potently inhibited by foretinib than by cabozantinib” and the “FER inhibition, in vitro kinase assay” value (FER) was “more potently inhibited by foretinib than by cabozantinib”. The “AURKA inhibition, in vitro kinase assay” value (AURKA) was “more potently inhibited by foretinib than by cabozantinib”, the “AURKB inhibition, in vitro kinase assay” value (AURKB) was “more potently inhibited by foretinib than by cabozantinib” and the “SRC autophosphorylation at Y419” value [2] was “did not decrease SRC autophosphorylation”. For the same compound, the “phosphorylation of pERK at T202/Y204” value [3] was “decreased phosphorylation of pERK”, the “phosphorylation of histone H3 at S10” value [4] was “decreased phosphorylation of histone H3 at S10” and the “drug-induced cell cycle changes” value (H1155 and A427 cells [5]) was “pronounced accumulation of cells in G2 phase”. The “phosphorylation changes of FER (pY immunoprecipitation)” value [6] was “phosphorylation changes of FER”, the FAK autophosphorylation (FAK autophosphorylation) was “not affected” and the “effect on viability of SCLC cells” value (SCLC cell lines) was “potently inhibited viability of MYC-amplified SCLC cells, but not SCLC cells without MYC amplification”.
With `COc1cc(Nc2ncc3c(n2)-c2ccc(Cl)cc2C(c2c(F)cccc2OC)=NC3)ccc1C(=O)O` [alisertib] the “decrease of H1155 viability on combining with FER and MEK1/2 inhibition” value (H1155 cells) was “only in a minor decrease of viability”.
With `OCCn1cc(-c2cnc3nnn(Cc4ccc5ncccc5c4)c3n2)cn1` [PF-04217903] the “effect on viability of NSCLC cell lines” value (NSCLC cell lines) was “little to no effects” and the “effect on viability of SCLC cells” value (SCLC cell lines) was “no effect on SCLC cells”.
In the case of `COc1cc2c(Oc3ccc(N(C(=O)C4(C(N)=O)CC4)c4ccc(F)cc4)cc3F)ccnc2cc1OCCCN1CCN(CCCN)CC1` [i-foretinib, N-(4-((7-(3-(4-(3-aminopropyl)piperazin-1-yl)propoxy)-6-methoxyquinolin-4-yl)oxy)-3-fluorophenyl)-N-(4-fluorophenyl)cyclopropane-1,1-dicarboxamide], the “ability to bind and inhibit MET” value (MET) is reported as “retained their ability to bind and inhibit MET”.
In the case of `COc1cc2nccc(Oc3ccc(NC(=O)C4(C(=O)Nc5ccc(F)cc5)CC4)cc3)c2cc1OC` [cabozantinib], the “effect on viability of NSCLC cell lines” value (NSCLC cell lines) is reported as “little to no effects”, the “inhibition of A427 cell growth, clonogenic assay” value (A427 cells) is reported as “in contrast to cabozantinib” and the “phosphorylation of pERK at T202/Y204” value [3] is reported as “in contrast to cabozantinib”. The “effect on viability of SCLC cells” value (SCLC cell lines) was “in contrast to cabozantinib” and the “inhibition of MET autophosphorylation” value [7] was “inhibited MET autophosphorylation”.
With `CC1(C)CNc2cc(NC(=O)c3cccnc3NCc3ccncc3)ccc21` [motesanib] the “effect on viability of NSCLC cell lines” value (NSCLC cell lines) was “little to no effects” and the “effect on viability of SCLC cells” value (SCLC cell lines) was “no effect on SCLC cells”.
With `CNC(=O)c1c(F)cccc1Nc1nc(Nc2cc3c(cc2OC)CCN3C(=O)CN(C)C)nc2[nH]ccc12` [GSK1838705A] the “phosphorylation changes of FER (pY immunoprecipitation)” value [6] was “phosphorylation changes of FER” and the FAK autophosphorylation (FAK autophosphorylation) was “not affected”.
